Assay [1] has as its target Kelch domain of human KEAP1 (321-624 aa) (Homo sapiens (Human), UniProt Q14145). Briefly: KEAP1 KELCH ThermoFluor binding assay.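 Further: Ligand-induced melting temperature shift of E. coli-expressed KEAP1 Kelch protein, Kd estimated from concentration-response curves of ΔTm.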 The note with it: KEAP Kelch […], 1,8-ANS, pH 7.0, average of results obtained, read-out: Tf Kd.
Assay [2] has as its system Glo-Response ARE-luc2P HEK293 cell line. Description: ARE luciferase reporter cell-based assay.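 Further: luciferase signal tracks Nrf2 activation of the ARE once compounds disrupt KEAP1-Nrf2 binding, read with One-Glo reagent, DMSO serving as low control.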 The note with it: Homo sapiens, HEK293, 24 h, average of results obtained.

Kelch domain of human KEAP1 (321-624 aa), sequence (Q14145 321-624): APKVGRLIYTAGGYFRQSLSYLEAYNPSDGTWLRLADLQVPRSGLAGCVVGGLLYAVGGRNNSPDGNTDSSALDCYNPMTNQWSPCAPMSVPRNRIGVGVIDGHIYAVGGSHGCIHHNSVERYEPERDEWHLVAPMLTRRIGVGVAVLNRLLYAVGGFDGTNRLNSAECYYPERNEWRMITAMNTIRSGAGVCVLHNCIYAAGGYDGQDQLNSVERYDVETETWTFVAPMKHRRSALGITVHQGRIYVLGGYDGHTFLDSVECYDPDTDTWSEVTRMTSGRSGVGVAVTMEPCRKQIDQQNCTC

By Kd is commonly meant the equilibrium constant for the complex coming apart. One may read the EC50 as the concentration needed to bring the measured effect to its halfway point. For the molecule `Cc1ccc([C@@H](CC(=O)O)c2ccc3c(nnn3CC3CC3)c2C)cc1CN1CC2(CC2)N(C)c2ncccc2S1(=O)=O` (single isomer, unassigned) [Example 79, (*R)-3-(1-(Cyclopropylmethyl)-4-methyl-1H-benzo[d][1,2,3]triazol-5-yl)-3-(4-methyl-3-((5′-methyl-1′,1′-dioxido-5′H-spiro[cyclopropane-1,4′-pyrido[2,3-f][1,2,5]thiadiazepin]-2′(3′H)-yl)methyl)phenyl)propanoic Acid], in assay [1], the Kd was found to be 5.6 nM. The molecule also showed an EC50 in assay [2] of 153 nM.

Turning to `Cc1ccc([C@@H](CC(=O)O)c2ccc3c(nnn3CC3CC3)c2C)cc1CN1C[C@@]2(C)CCCN2c2ncccc2S1(=O)=O` (single isomer, unassigned) [Example 81, (*R)-3-(1-(Cyclopropylmethyl)-4-methyl-1H-benzo[d][1,2,3]triazol-5-yl)-3-(4-methyl-3-(((*R)-7a-methyl-5,5-dioxido-7a,8,9,10-tetrahydropyrido[2,3-f]pyrrolo[2,1-d][1,2,5]thiadiazepin-6(7H)-yl)methyl)phenyl)propanoic Acid], in assay [1], the Kd was 5.5 nM. Also, it took 176 nM to reach a half-maximal effect in assay [2] (EC50).

Turning to `Cc1ccc([C@H](CC(=O)O)c2ccc3c(nnn3CC3CC3)c2C)cc1CN1C[C@@]2(C)CCCN2c2ncccc2S1(=O)=O` (single isomer, unassigned) [Example 82, (*S)-3-(1-(Cyclopropylmethyl)-4-methyl-1H-benzo[d][1,2,3]triazol-5-yl)-3-(4-methyl-3-(((*R)-7a-methyl-5,5-dioxido-7a,8,9,10-tetrahydropyrido[2,3-f]pyrrolo[2,1-d][1,2,5]thiadiazepin-6(7H)-yl)methyl)phenyl)propanoic Acid], in assay [1], the Kd worked out at 80 nM. The molecule also came in with an EC50 in assay [2] of 3350 nM.

As for `Cc1c([C@@H](CC(=O)O)c2ccc(Cl)c(CN3CC4CCCCN4c4ncccc4S3(=O)=O)c2)ccn2c(C(F)(F)F)nnc12` (single isomer, unassigned) [Example 84, (*S)-3-(4-Chloro-3-(((*S)-5,5-dioxido-7,7a,8,9,10,11-hexahydro-6H-dipyrido[2,1-d:2′,3′-][1,2,5]thiadiazepin-6-yl)methyl)phenyl)-3-(8-methyl-3-(trifluoromethyl)-[1,2,4]triazolo[4,3-a]pyridine-7-yl)propanoic Acid], the Kd in assay [1] is under 1 nM. Also, in assay [2], the midpoint of the response, the EC50, lay at 80.5 nM.

In the case of `Cc1c([C@H](CC(=O)O)c2ccc(Cl)c(CN3CC4CCCCN4c4ncccc4S3(=O)=O)c2)ccn2c(C(F)(F)F)nnc12` (single isomer, unassigned) [Example 85, (*R)-3-(4-Chloro-3-(((*S)-5,5-dioxido-7,7a,8,9,10,11-hexahydro-6H-dipyrido[2,1-d:2′,3′-f][1,2,5]thiadiazepin-6-yl)methyl)phenyl)-3-(8-methyl-3-(trifluoromethyl)-[1,2,4]triazolo[4,3-a]pyridine-7-yl)propanoic Acid], the Kd in assay [1] came to 2.2 nM. The EC50 in assay [2] was 1510 nM.

Consider `Cc1c([C@H](CC(=O)O)c2ccc(Cl)c(CN3CC4(COC4)Oc4ncccc4S3(=O)=O)c2)ccn2c(C(F)(F)F)nnc12` (single isomer, unassigned) [Example 87, (*R)-3-(4-Chloro-3-((1′,1′-dioxoidospiro[oxetane-3,4′-pyrido[2,3-b][1,4,5]oxathiazepin]-2′(3′H)-yl)methyl)phenyl)-3-(8-methyl-3-(trifluoromethyl)-[1,2,4]triazolo[4,3-a]pyridine-7-yl)propanoic Acid], for which the equilibrium dissociation constant (Kd) in assay [1] is 1.3 nM. For the same molecule, in assay [2], it took 2530 nM to reach a half-maximal effect (EC50).

For the molecule `Cc1c([C@@H](CC(=O)O)c2ccc(Cl)c(CN3CC4(COC4)Oc4ncccc4S3(=O)=O)c2)ccn2c(C(F)(F)F)nnc12` (single isomer, unassigned) [Example 88, (*S)-3-(4-Chloro-3-((1′,1′-dioxoidospiro[oxetane-3,4′-pyrido[2,3-b][1,4,5]oxathiazepin]-2′(3′H)-yl)methyl)phenyl)-3-(8-methyl-3-(trifluoromethyl)-[1,2,4]triazolo[4,3-a]pyridine-7-yl)propanoic Acid], the Kd in assay [1] came out at 0.01 nM. The same molecule showed an EC50 in assay [2] of over 20000 nM.

As to `Cc1cnc2c(c1)S(=O)(=O)N(Cc1cc([C@H](CC(=O)O)c3ccn4c(C(F)(F)F)nnc4c3C)ccc1Cl)CC1CCCCN21` (single isomer, unassigned) [Example 91, (*S)-3-(4-Chloro-3-(((*S)-3-methyl-5,5-dioxido-7,7a,8,9,10,11-hexahydro-6H-dipyrido[2,1-d:2′,3′-f][1,2,5]thiadiazepin-6-yl)methyl)phenyl)-3-(8-methyl-3-(trifluoromethyl)-[1,2,4]triazolo[4,3-a]pyridine-7-yl)propanoic Acid], in assay [1], the dissociation constant Kd is under 1 nM. Further, the 50% effective concentration (EC50) in assay [2] amounted to 14.4 nM.

As to `Cc1c([C@H](CC(=O)O)c2ccc(Cl)c(CN3CC4CCCCN4c4ncc(F)cc4S3(=O)=O)c2)ccn2c(C(F)(F)F)nnc12` (single isomer, unassigned) [Example 93, (*R)-3-(4-Chloro-3-(((*S)-3-fluoro-5,5-dioxido-7,7a,8,9,10,11-hexahydro-6H-dipyrido[2,1-d:2′,3′-f][1,2,5]thiadiazepin-6-yl)methyl)phenyl)-3-(8-methyl-3-(trifluoromethyl)-[1,2,4]triazolo[4,3-a]pyridine-7-yl)propanoic Acid], the Kd in assay [1] was under 1 nM. For the same molecule, it took 10 nM to reach a half-maximal effect in assay [2] (EC50).

As for `Cc1c([C@@H](CC(=O)O)c2ccc(Cl)c(CN3CC4CCCCN4c4ncc(F)cc4S3(=O)=O)c2)ccn2c(C(F)(F)F)nnc12` (single isomer, unassigned) [Example 94, (*S)-3-(4-Chloro-3-(((*S)-3-fluoro-5,5-dioxido-7,7a,8,9,10,11-hexahydro-6H-dipyrido[2,1-d:2′,3′-f][1,2,5]thiadiazepin-6-yl)methyl)phenyl)-3-(8-methyl-3-(trifluoromethyl)-[1,2,4]triazolo[4,3-a]pyridine-7-yl)propanoic Acid], the Kd in assay [1] was under 1 nM. The molecule further returned an EC50 in assay [2] of 54.2 nM.

Regarding `Cc1ccc([C@H](CC(=O)O)c2ccn3c(C(F)(F)F)nnc3c2C)cc1CN1CC2(COC2)Oc2ccc(F)cc2S1(=O)=O` (single isomer, unassigned) [Example 99, (*S)-3-(3-((8-Fluoro-1,1-dioxidospiro[benzo[b][1,4,5]oxathiazepine-4,3′-oxetan]-2(3H)-yl)methyl]-4-methylphenyl)-3-(8-methyl-3-(trifluoromethyl)-[1,2,4]triazolo[4,3-a]pyridin-7-yl)propanoic Acid], the dissociation constant Kd in assay [1] was under 1 nM. For the same molecule, a half-maximal effect in assay [2] (EC50) was put at 5.8 nM.

`Cc1ccc([C@H](CC(=O)O)c2ccn3c(C(F)(F)F)nnc3c2C)cc1CN1CC2(CC2)Oc2nc(NCCO)ccc2S1(=O)=O` (single isomer, unassigned) [Example 101, (*S)-3-(3-((7′-((2-Hydroxyethyl)amino-1′,1′-dioxidospiro[cyclopropane-1.4′-pyrido[2,3-b][1,4,5]oxathiazepin]-2′(3′H)-yl)methyl)-4-methylphenyl)-3-(8-methyl-3-(trifluoromethyl)-[1,2,4]triazolo[4,3-a]pyridinn-7-yl)propanoic Acid]: the Kd in assay [1] was under 1 nM. In assay [2], this molecule yielded a 50% effective concentration (EC50) of 577 nM.

As for `Cc1ccc([C@H](CC(=O)O)c2ccn3c(C(F)(F)F)nnc3c2C)cc1CN1CC2(CC2)Oc2nc(NCCCO)ccc2S1(=O)=O` (single isomer, unassigned) [Example 102], the dissociation constant (Kd) in assay [1] is under 1 nM. The same molecule had an EC50 in assay [2] of 696 nM.

The values above are taken from patent US10947252B2, “Inhibitors of KEAP1-Nrf2 protein-protein interaction” (Janssen Pharmaceutica NV, priority 2018, dated 2021).
